The test system of experiment [1] is MCAO rats. Description: Tactile stimulus experiment (time of MCAO rats removing the tape). In kind it is in vivo, rat. The conditions noted are these: for time of removing the tape, Evaluation (3 d): model group 244.29 ± 95.46; for time of removing the tape, Evaluation (7 d): model group 221.53 ± 105.33. The text has this: 140 healthy SD male rats, weighing 280-300 g, provided by Beijing Vital River Laboratories, certificate No.: SCXK (Jing) 2002-2003. The method of [Koizumi J, Yoshida […]. Experimental studies of ischemia brain edema, I: A new experimental model of cerebral embolism in rats in which recirculation can be introduced in the ischemic area[J]. […] After the rats were anesthetized and the skin thereof was disinfected by ethanol. By cutting right in the middle of the neck, the right common carotid artery, internal carotid artery and external carotid artery were separated and the common carotid artery and external carotid artery were ligated. The internal carotid artery was clamped with a bulldog clamp. A cut was made at the crotch of the external carotid artery and the internal carotid artery followed by releasing the bulldog clamp. […] Next, the external carotid artery was ligated and the nylon wire was fixed. In sham operation group, the right common carotid artery, the external carotid artery and the internal carotid artery were only exposed and separated. The rats were routinely raised in different cages. 0.5 ml penicillin was continuously injected into every mouse for three days after the surgery. […] The rats getting 1-3 point were selected for the subsequent experiment. The MCAO rats having the same point were distributed randomly and averagely to each experimental group. […] Evaluated was the executive function change of side forelimb sense and fine motor movement after the cerebral ischemia. […] The third and the seventh days after the administration were set as the observation time to carry out the test. The SPSS 11.0 software pack was used to carry out the statistical analysis of all the data. The comparison of the enumeration data was carried out with X^2 test P<0.05 had statistical meaning.

For experiment [2], the system named is MCAO rats. Description: Grip strength test of the forelimb of MCAO rats. The format is in vivo, rat. As to conditions: for Grip value (g) (3 d): model group 317.01 ± 53.81; for Grip value (g) (7 d): model group 285.58 ± 80.02. The text has this: 140 healthy SD male rats, weighing 280-300 g, provided by Beijing Vital River Laboratories, certificate No.: SCXK (Jing) 2002-2003. Nylon fishing wire, diameter 0.25 mm, German; YLS-13A, grip strength meter for mice and rats, Shandong Science Technology Instrument Station. The method of [Koizumi J, Yoshida […]. Experimental studies of ischemia brain edema, I: A new experimental model of cerebral embolism in rats in which recirculation can be introduced in the ischemic area[J]. […] After the rats were anesthetized and the skin thereof was disinfected by ethanol. By cutting right in the middle of the neck, the right common carotid artery, internal carotid artery and external carotid artery were separated and the common carotid artery and external carotid artery were ligated. The internal carotid artery was clamped with a bulldog clamp. A cut was made at the crotch of the external carotid artery and the internal carotid artery followed by releasing the bulldog clamp. […] Next, the external carotid artery was ligated and the nylon wire was fixed. In sham operation group, the right common carotid artery, the external carotid artery and the internal carotid artery were only exposed and separated. The rats were routinely raised in different cages. 0.5 ml penicillin was continuously injected into every mouse for three days after the surgery. […] The rats getting 1-3 point were selected for the subsequent experiment. The MCAO rats having the same point were distributed randomly and averagely to each experimental group. […] Evaluated was the change of the grip strength of the forelimb after the cerebral ischemia. A rat was put onto the pulling board making the forepaws thereof grab the cross bar. Then the tester pulled the rat backward to make its body slide backward along the board until the release of the forepaws (during this process it was made sure that the waist of the rat carried no force). The biggest grip strength was read when the forepaws released. Test was carried out twice for every rat and the bigger value was taken. The third and the seventh days after the administration were as the observation time to carry out the test. The SPSS 11.0 software pack was used to carry out the statistical analysis of all the data. The comparison of the enumeration data was carried out with X^2 test P<0.05 had statistical meaning.

Setting [3] is: 60 mg/kg intragastrically once a day.
Setting [4] is: 120 mg/kg intragastrically once a day.

These results are taken from patent US8987449B2, “Medicine for treating ischemic brain injury and its sequelae, and preparation method thereof” (Haimin Lei, priority 2011, dated 2015).

For the molecule `COCCOC(=O)C1=C(C)NC(C)=C(C(=O)OC(C)C)C1c1cccc([N+](=O)[O-])c1` (stereo not shown) [Nimodipine, reference compound], in the experiment on MCAO rats [1] (30 mg/kg once a day), the “time of removing the tape, Evaluation (3 d)” value (from here on “time … (3 d)”) amounted to 211.13 ± 116.65 s and the “time of removing the tape, Evaluation (7 d)” value (shortened to “time … (7 d)”) stood at 183.93 ± 124.50 s. Besides, in the experiment with MCAO rats [2] (30 mg/kg once a day), the “Grip value (g) (3 d)” value stood at 409.08 ± 65.13 g and the “Grip value (g) (7 d)” value is reported as 393.08 ± 59.61 g.
In the case of `COc1cc(C(=O)OCc2nc(C)c(C)nc2C)ccc1OCc1nc(C)c(C)nc1C` [LQC-T4, (3,5,6-trimethylpyrazine-2-yl)methyl 3-methoxy-4-((3,5,6-trimethylpyrazine-2-yl)methoxy) benzoate], in the experiment on MCAO rats [1] (setting [3]), the “time … (3 d)” value amounted to 181.31 ± 133.40 s and the “time … (7 d)” value is recorded as 175.80 ± 139.06 s. Also, in the experiment with MCAO rats [1] (setting [4]), the “time … (3 d)” value is 222.64 ± 104.45 s and the “time … (7 d)” value was determined as 245.95 ± 98.23 s. Further, in the experiment on MCAO rats [2] (setting [3]), the “Grip value (g) (3 d)” value was determined as 395.50 ± 16.88 g and the “Grip value (g) (7 d)” value is reported as 468.81 ± 78.14 g. Besides, in the experiment with MCAO rats [2] (setting [4]), the “Grip value (g) (3 d)” value was determined as 386.57 ± 42.35 g and the “Grip value (g) (7 d)” value is 421.68 ± 59.87 g.
For `Cc1nc(C)c(C)nc1C` [TMP, tetramethylpyrazine, reference compound], in the experiment on MCAO rats [1] (37 mg/kg once a day), the “time … (3 d)” value came out at 200.43 ± 117.81 s and the “time … (7 d)” value is 211.35 ± 111.15 s. Further, in the experiment on MCAO rats [2] (37 mg/kg once a day), the “Grip value (g) (3 d)” value is 415.19 ± 26.81 g and the “Grip value (g) (7 d)” value was determined as 434.22 ± 50.23 g.
